Test results published in ChEMBL document CHEMBL4152347 (J Med Chem, 2018).
Values after ≈ are worked out from the molar mass of the structure shown.

How the values were obtained:
[1] = Drug metabolism in human plasma assessed as mono-oxidation product formation at 5 mg/kg, po administered via gavage by LC-MS/MS analysis; type: ADME, organism-based; conditions: in vivo
[2] = Drug metabolism in Sprague-Dawley rat plasma assessed as mono-oxidation product formation at 5 mg/kg, po administered via gavage by LC-MS/MS analysis; type: ADME, organism-based; conditions: in vivo
[3] = Drug metabolism in beagle dog plasma assessed as mono-oxidation product formation at 5 mg/kg, po administered via gavage by LC-MS/MS analysis; type: ADME, organism-based, Canis lupus familiaris; conditions: in vivo
[4] = Drug metabolism in cynomolgus monkey plasma assessed as mono-oxidation product formation at 5 mg/kg, po administered via gavage by LC-MS/MS analysis; type: ADME, organism-based, Macaca fascicularis; conditions: in vivo
[5] = (§1) Drug metabolism in human plasma assessed as 4-((1R,3aS,5aR,5bR,7aR,11aS,11bR,13aR,13bR)-3a-amino-5a,5b,8,8,11a-pentamethyl-1-(prop-1-en-2-yl)-2,3,3a,4,5,5a,5b,6,7,7a,8,11,11a,11b,12,13,13a,13b-octadecahydro-1H-cyclopenta[a]chrysen-9-yl)benzoic acid formation at 5 mg/kg, po administered via gavage by LC-MS/MS analysis; type: ADME, organism-based; conditions: in vivo
[6] = as §1, with “Sprague-Dawley rat” for “human”; type: ADME, organism-based; conditions: in vivo
[7] = as §1, with “beagle dog” for “human”; type: ADME, organism-based, Canis lupus familiaris; conditions: in vivo
[8] = as §1, with “cynomolgus monkey” for “human”; type: ADME, organism-based, Macaca fascicularis; conditions: in vivo
[9] = (§2) Drug metabolism in human plasma assessed as (2S,3S,4S,5R,6S)-6-[4-[(1R,3aS,5aR,5bR,7aR,11aS,11bR,13aR,13bR)-3a-[2-(1,1-dioxo-1,4-thiazinan-4-yl)ethylamino]-1-isopropenyl-5a,5b,8,8,11a-pentamethyl-1,2,3,4,5,6,7,7a,11,11b,12,13,13a,13b-tetradecahydrocyclopenta[a]chrysen-9-yl]benzoyl]oxy-3,4,5-trihydroxy-tetrahydropyran-2-carboxylic acid formation at 5 mg/kg, po administered via gavage by LC-MS/MS analysis; type: ADME, organism-based; conditions: in vivo
[10] = as §2, with “Sprague-Dawley rat” for “human”; type: ADME, organism-based; conditions: in vivo
[11] = as §2, with “beagle dog” for “human”; type: ADME, organism-based, Canis lupus familiaris; conditions: in vivo
[12] = as §2, with “cynomolgus monkey” for “human”; type: ADME, organism-based, Macaca fascicularis; conditions: in vivo
[13] = (§3) Drug level in human plasma treated with [14C]4-[(1R,3aS,5aR,5bR,7aR,11aS,11bR,13aR,13bR)-3a-[2-(1,1-dioxo-1,4-thiazinan-4-yl)ethylamino]-1-isopropenyl-5a,5b,8,8,11a-pentamethyl-1,2,3,4,5,6,7,7a,11,11b,12,13,13a,13b-tetradecahydrocyclopenta[a]chrysen-9-yl]benzoic acid at 5 mg/kg, po administered via gavage by LC-MS/MS analysis; type: ADME, organism-based; conditions: in vivo
[14] = as §3, with “Sprague-Dawley rat” for “human”, “acid” for “acid at 5 mg/kg, po administered via gavage”; type: ADME, cell-free
[15] = as §3, with “beagle dog” for “human”; type: ADME, organism-based, Canis lupus familiaris; conditions: in vivo
[16] = as §3, with “cynomolgus monkey” for “human”; type: ADME, organism-based, Macaca fascicularis; conditions: in vivo
[17] = Dissociation constant, pKa of the compound; type: physicochemical
[18] = in vitro; conditions: human, MT2 cells
Description: Cytotoxicity against human MT2 cells assessed as reduction in cell viability

[19] = in vitro; conditions: rat, liver microsomes
Description: Half life in rat liver microsomes at 0.5 uM after 1 hr in presence of NADPH by LC-MS/MS analysis

[20] = in vitro; conditions: human, liver microsomes
Description: Half life in human liver microsomes at 0.5 uM after 1 hr in presence of NADPH by LC-MS/MS analysis

[21] = test system: Human immunodeficiency virus 1; test: microbe, parasite or virus in culture; conditions: Human immunodeficiency virus 1, MT2
Description: Antiviral activity against wild type HIV1 infected in human MT2 cells after 4 to 5 days by dual luciferase reporter gene assay

[22] = test system: Human immunodeficiency virus 1; test: microbe, parasite or virus in culture; conditions: Human immunodeficiency virus 1, MT2; remark: listed apart in the source
[23] = test system: Human immunodeficiency virus 1; test: microbe, parasite or virus in culture; conditions: Human immunodeficiency virus 1, MT2; remark: listed apart in the source
Description: Antiviral activity against HIV1 expressing gag delta V370 mutant infected in human MT2 cells after 4 to 5 days by dual luciferase reporter gene assay

[24] = test system: Human immunodeficiency virus 1; test: Ratio of EC50 for antiviral activity against wild type HIV1 infected in human MT2 cells after 4 to 5 days in presence of 10% FBS plus […] by dual luciferase reporter gene assay to EC50 for antiviral activity against wild type HIV1 infected in human MT2 cells after 4 to 5 days by dual luciferase reporter gene assay; type: functional
[25] = test system: Human immunodeficiency virus 1; test: microbe, parasite or virus in culture; conditions: Human immunodeficiency virus 1, MT2; remark: listed apart in the source
Description: Antiviral activity against wild type HIV1 infected in human MT2 cells after 4 to 5 days in presence of 10% FBS and 40% human serum albumin by dual luciferase reporter gene assay

[26] = Solubility of compound in fasted state simulated intestinal fluid at pH 6.5; type: physicochemical
[27] = Solubility of compound in fed state simulated intestinal fluid at pH 5; type: physicochemical
[28] = in vivo; conditions: Sprague-Dawley, rat, po, 5 mg/kg
[29] = physchem; conditions: aqueous
Description: Aqueous solubility of the compound

Row | SMILES | pKa [17] | CC50 [18] [µM] | half-life at 1 h, 0.5 µM [19] [min] | half-life at 1 h, 0.5 µM [20] [min] | EC50 [21] [nM] | EC50 [22] [nM] | EC50 [23] [nM] | EC50 [25] [nM] | AUC(0-t) at 24 h [28] [µM·h] | also measured
1 | C=C(C)[C@@H]1CC[C@]2(NCCN3CCS(=O)(=O)CC3)CC[C@]3(C)[C@H](CC[C@@H]4[C@@]5(C)CC=C(c6ccc([14C](=O)O)cc6)C(C)(C)[C@@H]5CC[C@]43C)[C@@H]12 |  |  |  |  |  |  |  |  |  | Drug metabolism [1]: Metabolite_Detected; Drug metabolism [2]: Metabolite_Detected; Drug metabolism [3]: Metabolite_Detected; Drug metabolism [4]: Metabolite_Detected; Drug metabolism [5]: Metabolite_Detected; Drug metabolism [6]: Metabolite_Detected; Drug metabolism [7]: Metabolite_Detected; Drug metabolism [8]: Metabolite_Detected; Drug metabolism [9]: Metabolite_Detected; Drug metabolism [10]: Metabolite_Detected; Drug metabolism [11]: Metabolite_Detected; Drug metabolism [12]: Metabolite_Detected
2 | C=C(C)[C@@H]1CC[C@]2(N)CC[C@]3(C)[C@H](CC[C@@H]4[C@@]5(C)CC=C(c6ccc(C(=O)O)cc6)C(C)(C)[C@@H]5CC[C@]43C)[C@@H]12 |  |  |  |  |  |  |  |  |  | Drug uptake [13]: Active; Drug uptake [14]: Active; Drug uptake [15]: Active; Drug uptake [16]: Active
3 | C=C(C)[C@@H]1CC[C@]2(NCCN3CCOCC3)CC[C@]3(C)[C@H](CC[C@@H]4[C@@]5(C)CC=C(c6ccc(C(=O)O)cc6)C(C)(C)[C@@H]5CC[C@]43C)[C@@H]12 | 8.2 | > 10 | > 120 | > 120 | 8.3 | 13.2 | 47.4 |  |  | 
4 | C=C(C)[C@@H]1CC[C@]2(NCCN3CCCS(=O)(=O)CC3)CC[C@]3(C)[C@H](CC[C@@H]4[C@@]5(C)CC=C(c6ccc(C(=O)O)cc6)C(C)(C)[C@@H]5CC[C@]43C)[C@@H]12 |  | 4.9 | > 120 | > 120 | 3.6 |  |  | 35.1 |  | Ratio EC50 [24]: 9.7
5 | C=C(C)[C@@H]1CC[C@]2(NCCN3CCS(=O)(=O)CC3)CC[C@]3(C)[C@H](CC[C@@H]4[C@@]5(C)CC=C(c6ccc(C(=O)O)c(F)c6)C(C)(C)[C@@H]5CC[C@]43C)[C@@H]12 |  | 7.8 | > 120 | > 120 | 2.8 | 3.4 | 9.7 | 12.8 | 24.3 | solubility [26]: 140 µg/mL (≈ 197 µM); solubility [27]: 330 µg/mL (≈ 465 µM); solubility [29]: < 1 µg/mL
6 | C=C(C)[C@@H]1CC[C@]2(NCCN3CCC(F)(F)CC3)CC[C@]3(C)[C@H](CC[C@@H]4[C@@]5(C)CC=C(c6ccc(C(=O)O)cc6)C(C)(C)[C@@H]5CC[C@]43C)[C@@H]12 | 8.5 | > 10 | > 120 | > 120 | 5.1 | 14.1 | 67.5 |  |  | 
7 | C=C(C)[C@@H]1CC[C@]2(CNCCCN3CCS(=O)(=O)CC3)CC[C@]3(C)[C@H](CC[C@@H]4[C@@]5(C)CC=C(c6ccc(C(=O)O)cc6)C(C)(C)[C@@H]5CC[C@]43C)[C@@H]12 | 5.4 |  | > 120 | > 120 |  |  |  |  | 3.15 | 
8 | C=C(C)[C@@H]1CC[C@]2(NCCN3CCS(=O)(=O)CC3)CC[C@]3(C)[C@H](CC[C@@H]4[C@@]5(C)CC=C(c6ccc(C(=O)OC)cc6)C(C)(C)[C@@H]5CC[C@]43C)[C@@H]12 |  |  |  |  |  |  |  |  |  | Drug uptake [13]: Active; Drug uptake [14]: Active; Drug uptake [15]: Active; Drug uptake [16]: Active
9 | C=C(C)[C@@H]1CC[C@]2(NCCN3C[C@@H]4C[C@H]3CS4(=O)=O)CC[C@]3(C)[C@H](CC[C@@H]4[C@@]5(C)CC=C(c6ccc(C(=O)O)cc6)C(C)(C)[C@@H]5CC[C@]43C)[C@@H]12 |  | 7.34 | > 120 | > 120 | 1.9 | 2.8 | 7.7 | 11.1 | 27 | solubility [29]: < 1 µg/mL
